Patent US20230365537A1, “POLO LIKE KINASE 4 INHIBITORS” (ORIC Pharmaceuticals, Inc., priority 2021, published 2023)

How the values were obtained:
[1] = biological target: human recombinant PLK4 (Homo sapiens (Human), UniProt O00444); assay: PLK4 Biochemical Assay (ADP-Glo); settings: 0.5 nM PLK4, 8.0 µM ATP, 4.7 µM MBP, 6 hours at RT
How it was run: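 Recombinant human PLK4 (added at 1.0 nM) was preincubated 15 min at RT with compound in 50 mM HEPES pH 7.5, 10 mM MgCl2, 1 mM EGTA, 1 mM DTT, 0.01% Brij-35, 0.01% BSA. ADP formed was detected by ADP-Glo luminescence (40 min ATP depletion, 30 min detection). IC50 came from a four-parameter fit.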

[2] = biological target: human recombinant Aurora B (Homo sapiens (Human), UniProt Q96GD4); assay: Aurora B Kinase Biochemical Assay (ADP-Glo); settings: ratio of Aurora B IC50 to PLK4 IC50 (selectivity)
human recombinant Aurora B, sequence (Q96GD4 whole entry): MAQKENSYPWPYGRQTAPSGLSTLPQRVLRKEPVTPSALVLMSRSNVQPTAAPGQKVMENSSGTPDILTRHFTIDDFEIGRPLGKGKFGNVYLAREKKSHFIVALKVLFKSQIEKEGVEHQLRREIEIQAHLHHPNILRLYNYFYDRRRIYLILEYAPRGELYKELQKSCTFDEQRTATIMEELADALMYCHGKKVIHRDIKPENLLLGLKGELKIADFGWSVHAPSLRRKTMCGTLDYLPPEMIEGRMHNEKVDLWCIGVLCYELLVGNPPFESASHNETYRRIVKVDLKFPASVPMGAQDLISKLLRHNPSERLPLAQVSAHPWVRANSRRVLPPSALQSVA
How it was run: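 Recombinant human Aurora B (20 nM in pH 7.5 HEPES buffer with MgCl2, EGTA, DTT, Brij-35, BSA) preincubated with compound 15 min at RT. ADP formed quantified by ADP-Glo luminescence after ATP depletion (40 min) and detection (30 min). IC50 from four-parameter non-linear regression.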

[3] = test system: CHP-134 cells; assay: CHP134 CellTiter-Glo (CTG) Assay; assay type: cell-based; settings: 5 days, viable cells by CellTiter-Glo
Procedure: Cells were seeded (200 cells/well) in 384-well plates for 16 hours. On day two, nine serial 1:3 compound dilutions were made in DMSO in a 96-well plate. The compounds were then further diluted into growth media using a BRAVO robot (Agilent, Santa Clara, CA). The diluted compounds were then added to quadruplicate wells in the 384-well cell plate and incubated at 37° C. and 5% CO2. After 5 days, relative numbers of viable cells were measured by luminescence using CellTiter-Glo® (Promega) according to the manufacturer’s instructions and read on a SPARK Multimode Microplate Reader (Tecan, Mannedorf Switzerland). The IC50 calculations for the values reported in Table 2 were carried out using Prism 6.0 software (GraphPad, San Diego).

[4] = biological target: human recombinant Aurora A (Homo sapiens (Human), UniProt O14965); assay: Aurora A Kinase Biochemical Assay (ADP-Glo); settings: ratio of Aurora A IC50 to PLK4 IC50 (selectivity)
human recombinant Aurora A, sequence (O14965 whole entry): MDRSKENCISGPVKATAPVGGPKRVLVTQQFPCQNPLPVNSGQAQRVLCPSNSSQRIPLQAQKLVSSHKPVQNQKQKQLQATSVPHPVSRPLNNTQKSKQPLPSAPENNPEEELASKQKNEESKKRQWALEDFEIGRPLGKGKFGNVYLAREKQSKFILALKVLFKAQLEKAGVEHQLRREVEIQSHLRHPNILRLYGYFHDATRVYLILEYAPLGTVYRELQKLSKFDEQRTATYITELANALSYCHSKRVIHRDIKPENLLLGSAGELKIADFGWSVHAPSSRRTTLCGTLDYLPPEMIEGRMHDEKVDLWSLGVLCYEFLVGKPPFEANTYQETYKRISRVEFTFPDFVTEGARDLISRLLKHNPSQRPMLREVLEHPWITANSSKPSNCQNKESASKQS

human recombinant PLK4, sequence (O00444 whole entry): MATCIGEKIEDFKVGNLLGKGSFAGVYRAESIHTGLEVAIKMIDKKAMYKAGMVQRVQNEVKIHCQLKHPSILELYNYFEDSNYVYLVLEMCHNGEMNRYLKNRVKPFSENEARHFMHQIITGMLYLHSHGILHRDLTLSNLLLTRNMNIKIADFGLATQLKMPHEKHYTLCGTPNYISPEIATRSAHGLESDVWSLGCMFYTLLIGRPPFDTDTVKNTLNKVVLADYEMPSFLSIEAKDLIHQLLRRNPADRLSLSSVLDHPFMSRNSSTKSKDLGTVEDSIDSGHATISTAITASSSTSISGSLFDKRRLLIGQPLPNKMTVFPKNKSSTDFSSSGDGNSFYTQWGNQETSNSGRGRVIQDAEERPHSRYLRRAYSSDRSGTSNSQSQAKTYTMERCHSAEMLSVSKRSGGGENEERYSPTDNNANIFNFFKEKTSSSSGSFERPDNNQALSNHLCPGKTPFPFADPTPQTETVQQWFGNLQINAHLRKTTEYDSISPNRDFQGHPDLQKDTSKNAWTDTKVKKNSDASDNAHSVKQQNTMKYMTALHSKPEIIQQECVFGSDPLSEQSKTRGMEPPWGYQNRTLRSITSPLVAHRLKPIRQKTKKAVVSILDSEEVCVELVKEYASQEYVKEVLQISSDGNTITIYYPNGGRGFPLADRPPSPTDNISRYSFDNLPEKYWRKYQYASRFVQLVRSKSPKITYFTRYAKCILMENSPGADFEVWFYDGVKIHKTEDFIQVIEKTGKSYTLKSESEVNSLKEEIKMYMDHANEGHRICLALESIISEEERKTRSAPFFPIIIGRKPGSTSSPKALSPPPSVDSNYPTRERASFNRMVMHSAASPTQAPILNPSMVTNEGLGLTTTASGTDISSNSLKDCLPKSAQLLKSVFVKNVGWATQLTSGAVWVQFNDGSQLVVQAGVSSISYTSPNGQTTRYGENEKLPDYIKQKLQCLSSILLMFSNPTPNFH

Row | Compound | IC50 [1] | [Aurora B IC50 (nM)]/[PLK4 IC50 (nM)] [2] | [Aurora A IC50 (nM)]/[PLK4 IC50 (nM)] [4] | IC50 ([3]; Homo sapiens, CHP-134, 120 h) | IC50 [3]
1 | COc1ccc2c(c1)[C@]1(C[C@H]1c1ccc3c(Nc4ccc([S+](C)[O-])nc4OC)n[nH]c3c1)C(=O)N2 (single isomer, unassigned) [Example 240] | 2.18 nM | 102.4323 | 735.1996 |  | 422 nM
2 | COc1ccc2c(c1)[C@]1(CC1c1ccc3c(/C=C/c4ccc(CN5C[C@@H](C)O[C@@H](C)C5)cc4)n[nH]c3c1)C(=O)N2 (some centres unmarked) [CFI-400495, reference compound] |  |  |  | 9.08 nM | 
3 | COc1ccc2c(c1)[C@]1(C[C@H]1c1ccc3c(Nc4ncnc(N5CCOCC5)c4OC)n[nH]c3c1)C(=O)N2 [Example 11, (1R,2S)-5′-Methoxy-2-(3-{[5-methoxy-6-(morpholin-4-yl)pyrimidin-4-yl)amino}-1H-indazol-6-yl)spiro[cyclopropane-1,3′-indol]-2′(1′H)-one] | 4.88 nM | 77.87 | 3277.276 | 2950 nM | 
4 | COc1ccc2c(c1)[C@]1(C[C@H]1c1ccc3c(Nc4ncnc(N5CCCCC5)c4OC)n[nH]c3c1)C(=O)N2 [Example 12, (1R.2S)-5′-Methoxy-2-(3-{[5-methoxy-6-(piperidin-1-yl)pyrimidin-4-yl]amino}-1H-indazol-6-yl)spiro[cyclopropane-1,3′-indol]-2′(1′H)-one] | 4.96 nM |  |  | 2030 nM | 
5 | COc1ccc2c(c1)[C@]1(C[C@H]1c1ccc3c(Nc4ncnc(N5CCN(C)CC5)c4Cl)n[nH]c3c1)C(=O)N2 [Example 20, (1R,2S)-2-(3-{[5-chloro-6-(4-methylpiperazin-1-yl)pyrimidin-4-yl]amino}-1H-indazol-6-yl)-5′-methoxyspiro[cyclopropane-1,3′-indol]-2′(1′H)-one] | 2.25 nM | 306.8323 | 4489.796 | 263 nM | 
6 | COc1ccc2c(c1)[C@]1(C[C@H]1c1ccc3c(Nc4nc(OC)ncc4Cl)n[nH]c3c1)C(=O)N2 [Example 23, (1R,2S)-2-{3-[(5-chloro-2-methoxypyrimidin-4-yl)amino]-1H-indazol-6-yl}-5′-methoxyspiro[cyclopropano-1,3′-indol]-2′(1′H)-one] | 5.05 nM | 170.7409 | 215.5309 | 45.9 nM | 
7 | COc1ccc2c(c1)[C@]1(C[C@H]1c1ccc3c(Nc4nc(C)nc(N5CCOCC5)c4OC)n[nH]c3c1)C(=O)N2 [Example 41, (1R,2S)-5′-methoxy-2-(3-{[5-methoxy-2-methyl-6-(morpholin-4-yl)pyrimidin-4-yl]amino}-1H-indazol-6-yl)spiro[cyclopropane-1,3′-indol]-2′(1′H)-one] | 2.71 nM | 471.4128 | 2257.47 | 844 nM | 
8 | COc1ccc2c(c1)[C@]1(C[C@H]1c1ccc3c(Nc4ncnc(N5CC(O)C5)c4Cl)n[nH]c3c1)C(=O)N2 [Example 46, (1R,2S)-2-(3-{[5-chloro-6-(3-hydroxyazetidin-1-yl)pyrimidin4-yl]amino}-1H-indazol-6-yl)-5′-methoxyspiro[cyclopropane-1,3′-indol]-2′(1′H)-one] | 2.52 nM | 135.8985 | 2542.642 | 1430 nM | 
9 | COc1ccc2c(c1)[C@]1(C[C@H]1c1ccc3c(Nc4nc(Cl)nc(N5CCOCC5)c4OC)n[nH]c3c1)C(=O)N2 [Example 48, (1R,2S)-2-(3-{[2-chloro-5-methoxy-6-(morpholin-4-yl)pyrimidin-4-yl]amino}-1H-indazol-6-yl)-5′-metboiyspiro[cyclopropane-1,3′-indol]-2′(1′H)-one] | 3.28 nM | 292.3406 | 1948.123 | 742 nM | 
10 | COc1ccc2c(c1)[C@]1(C[C@H]1c1ccc3c(Nc4ncnc(N5C[C@@H](C)O[C@@H](C)C5)c4OC)n[nH]c3c1)C(=O)N2 [Example 52, (lR,2S)-2-[3-({6-[(2R,6S)-2,6-dimethylmorpholin-4-yl]-5-methoxypyrimidin-4-yl}amino)-1H-indazol-6-yl]-5′-methoxyspiro[cydopropane-1,3′-indol]-2′(1′H)-one] | 7.01 nM | 55.0706 | 2009.699 | 2260 nM | 
11 | COc1ccc2c(c1)[C@]1(C[C@H]1c1ccc3c(Nc4nc(OC)ncc4OC)n[nH]c3c1)C(=O)N2 [Example 156, (1R,2S)-2-{3-[(2,5-dimethoxypyrimidin-4-yl)amino]-1H-indazol-6-yl}-5′-methoxyspiro[cyclopropane-1,3′-indol]-2′(1′H)-one] |  |  |  | 494 nM | 
12 | COc1ccc2c(c1)[C@]1(C[C@H]1c1ccc3c(Nc4cc(N5CCN(C)C5=O)cnc4OC)n[nH]c3c1)C(=O)N2 [Example 221, (1R,2S)-5′-methoxy-2-(3-{[2-methoxy-5-(3-methyl-2-oxoimidazolidin-1-yl)pyridin-3-yl]amino}-1H-indazol-6-yl)spiro[cyclopropane-1,3′-indol]-2′(1′H)-one] |  |  |  | 849 nM | 
13 | COc1ccc2c(c1)[C@]1(C[C@H]1c1ccc3c(Nc4cc(S(=O)(=O)C5CCOCC5)ccc4OC)n[nH]c3c1)C(=O)N2 [Example 224, (1R,2S)-5′-methoxy-2-{3-[2-methoxy-5-(oxane-4-sulfonyl)anilino]-1H-indazol-6-yl}spiro[cyclopropane-1,3′-indol]-2′(1′H)-one] |  |  |  | 2020 nM | 

The next lines start with results.

Row | IC50 [1] | [Aurora B IC50 (nM)]/[PLK4 IC50 (nM)] [2] | [Aurora A IC50 (nM)]/[PLK4 IC50 (nM)] [4] | Compound | IC50 ([3]; Homo sapiens, CHP-134, 120 h) | IC50 [3]
14 | 1.71 nM | 229.0739 | 485.6389 | COc1ccc2c(c1)[C@]1(C[C@H]1c1ccc3c(Nc4nc(C5CCOC5)ncc4OC)n[nH]c3c1)C(=O)N2 (single isomer, unassigned) [Example 201] | 455 nM | 
15 | 1.69 nM | 466.8047 | 1429.5857 | COc1ccc2c(c1)[C@]1(C[C@H]1c1ccc3c(Nc4ccc([S+](C)[O-])nc4OC)n[nH]c3c1)C(=O)N2 (single isomer, unassigned) [Example 239] |  | 949 nM
16 | 0.694 nM | 240.6394 | 4791.187 | COc1ccc2c(c1)[C@]1(C[C@H]1c1ccc3c(Nc4ncnc(N5CCOCC5)c4Cl)n[nH]c3c1)C(=O)N2 [Example 9, (1R,2S)-2-(3-{[5-Chloro-6-(morpholin-4-yl)pyrimidin-4-yl]amino}-1H-indazol-6-yl)-5′-methoxyspiro[cyclopropane-1,3′-indol]-2′(1′H)-one] | 99.7 nM | 
17 | 1.59 nM | 103.0876 | 954.6314 | COc1ccc2c(c1)[C@]1(C[C@H]1c1ccc3c(Nc4nc(Cl)ncc4OC)n[nH]c3c1)C(=O)N2 [Example 10, (1R,2S)-2-{3-[(2-Chloro-5-methoxypyrimidin-4-yl)amino]-1H-indazol-6-yl}-5′-methoxyspiro[cyclopropane-1,3′-indol]-2′(1′H)-one] | 438 nM | 
18 | 1.3 nM | 104.3011 | 1879.416 | COc1ccc2c(c1)[C@]1(C[C@H]1c1ccc3c(Nc4ncnc(N5CC(OC)C5)c4Cl)n[nH]c3c1)C(=O)N2 [Example 47, (1R,2S)-2-(3-{[5-chloro-6-(3-methoxyazetidin-1-yl)pyrimidin-4-yl]amino}-1H-indazol-6-yl)-5′-methoxyspiro[cyclopropane-1,3′-indol]-2′(1′H)-one] | 610 nM | 
19 | 1.23 nM | 1241.883 | 3031.656 | COc1ccc2c(c1)[C@]1(C[C@H]1c1ccc3c(Nc4nc(C5CC5)nc(N5CCOCC5)c4OC)n[nH]c3c1)C(=O)N2 [Example 51, (1R,2S)-2-(3-1[2-cyclopropyl-5-methoxy-6-(morpholin-4-yl)pyrimidin-4-yl]aminol-1H-indezol-6-yl)-5′-methoxyapiro[cyclopropane-1,3′-indol]-2′(1′H)-one] | 143 nM | 
20 | 1.93 nM | 309.1097 | 727.2256 | COc1ccc2c(c1)[C@]1(C[C@H]1c1ccc3c(Nc4ncc(S(=O)(=O)C(F)F)cc4OC)n[nH]c3c1)C(=O)N2 [Example 280, (1R,2S)-2-{3-[(5-difluoromethanesulfonyl-3-methoxypyridin-2-yl)amino]-1H-indazol-6-yl}-5′-methoxy-1′H-spiro[cyclopropane-1,3′-indol]-2′-one] |  | 
